Source: patent US8883745B2, “C—glycolipids with enhanced Th-1 profile” (New York University, priority 2006, dated 2014)

Assays:
IL-12 = IL-12 levels in sera upon i.v. glycolipid administration to C57BL/6 mice (ELISA); assay type: in vivo; design: IL-12 levels, test 1 / IL-12 levels, test 2 / IL-12 levels, average / IL-12 levels, Total: unit not given here; conditions: for IL-12/IL-4 (B6): C57BL/6, ratio calculated from Tables 1-6; for IL-12 levels, average / IL-12 levels, test 1 / IL-12 levels, test 2 / IL-12 levels, Total: C57BL/6, serum; for IL-12 levels, Total: total over hours 0-72
Procedure: (§1) Five- to six-week-old female C57BL/6 mice and BALB/c mice were purchased from Taconic. Each glycolipid was stored at 1 mg/ml in 100% DMSO. Mice were injected intravenously with 1 μg of each glyocolipid diluted in 200 μL sterile phosphate buffered saline (PBS). At indicated time points, sera were collected from each animal, and concentrations of IFN-γ, IL-4, and IL-12 in the sera were evaluated by enzyme-linked immunosorbent assay (ELISA). Serum concentrations of IFN-γ, IL-4, and IL-12 were evaluated using an ELISA kit (eBioscience, San Diego, Calif.). Briefly, 96 well flat-bottom ELISA plates (NUNC) were coated with capture antibody according to the manufacture's recommendation and incubated overnight at 4° C. The plates were washed with PBS+0.05% Tween 20 (PBS-T), then incubated with manufacturer provided blocking solution for 1 hr at room temperature to block non-specific binding sites. After washing with PBS-T, sera diluted 1:10 was added to the wells and incubated for 2 hrs at room temperature. Plates were then incubated at room temperature for 1 hr with biotintylated detection antibody, washed, incubated with avidin conjugated to horse radish peroxidase (HRP) for 30 min at room temperature, washed, and finally incubated with tetramethylbenzidine substrate solution in the dark for 10 minutes at room temperature. The antibodies, avidin-HRP, and substrate solution were all diluted according to the manufacture's recommendation. Reactions were stopped with 2.0N sulfuric acid and the cytokine concentration in each well was determined by comparing the absorbance at 450 nm in each well to known standards. The levels of Th1- and Th2-type cytokines were determined in two different genetic backgrounds, i.e., in C57BL/6 mice and BALB/c mice. The following compounds were administered: A=compound (A-1 trans-conformer), B=compound (A-2), C=compound (A-3), D=compound (A-4), E=compound (A-5), Z=control (PBS alone), CRONY=α-C-GalCer, KRN=α-GalCer, GCK109 (A-1 trans-conformer), GCK151 (A-1 cis-conformer), GCK152 (A-7). The levels of cytokines were measured at 0, 2, 6, 12, 24, 48, and 72 hours after the compound administration. The levels of Th1-type cytokines IFN-γ and IL-12 are summarized in FIGS. 2A-C and 3A-C, respectively. Table 7 provides IFN-γ/IL-4 and IL-12/IL-4 ratios for various compounds, which can be used as indicators of their ability to selectively stimulate Th1-type immune responses.

IFN-γ = IFN-γ levels in sera upon i.v. glycolipid administration to BALB/c mice (ELISA); assay type: in vivo; design: IFN-γ levels, test 1 / IFN-γ levels, test 2 / IFN-γ levels, average / IFN-γ levels, Total: unit not given here; conditions: for IFN-γ/IL-4 (BALB/c): ratio calculated from Tables 1-6; for IFN-γ/IL-4 (BALB/c) / IFN-γ levels, average / IFN-γ levels, test 1 / IFN-γ levels, test 2 / IFN-γ levels, Total: BALB/c; for IFN-γ levels, average / IFN-γ levels, test 1 / IFN-γ levels, test 2 / IFN-γ levels, Total: serum; for IFN-γ levels, Total: total over hours 0-72
Procedure: as §1

## CCCCCCCCCCCCCCCCCCCCCCCCCCCCC(=O)N[C@@H](/C=C/[C@H]1O[C@H](CO)[C@H](O)[C@H](O)[C@H]1O)[C@H](O)[C@H](O)CCCCCCCCCCCCCC [A-2, (3S,4S,5R)-1-C-(α-D-galactopyranosyl)-3-(N-nonacosanoylamino)-4,5-nonadec-(1,2-E)-enediol]
IL-12
  IL-12/IL-4 (B6): 4.8
  IL-12 levels, Total: 3969
IL-12; hour 0
  IL-12 levels, average: 5
  IL-12 levels, test 1: 5
  IL-12 levels, test 2: 5
IL-12; hour 2
  IL-12 levels, average: 161.5
  IL-12 levels, test 1: 178
  IL-12 levels, test 2: 145
IL-12; hour 6
  IL-12 levels, average: 1363.5
  IL-12 levels, test 1: 1488
  IL-12 levels, test 2: 1239
IL-12; hour 12
  IL-12 levels, average: 1818.5
  IL-12 levels, test 1: 1692
  IL-12 levels, test 2: 1945
IL-12; hour 24
  IL-12 levels, average: 323
  IL-12 levels, test 1: 44
  IL-12 levels, test 2: 602
IL-12; hour 48
  IL-12 levels, average: 250
  IL-12 levels, test 1: 500
  IL-12 levels, test 2: 0
IL-12; hour 72
  IL-12 levels, average: 45.5
  IL-12 levels, test 1: 91
  IL-12 levels, test 2: 0
IFN-γ
  IFN-γ/IL-4 (BALB/c): 43
  IFN-γ levels, Total: 26755
IFN-γ; hour 0
  IFN-γ levels, average: 27
  IFN-γ levels, test 1: 27
  IFN-γ levels, test 2: 27
IFN-γ; hour 2
  IFN-γ levels, average: 234
  IFN-γ levels, test 1: 197
  IFN-γ levels, test 2: 271
IFN-γ; hour 6
  IFN-γ levels, average: 4185.5
  IFN-γ levels, test 1: 3723
  IFN-γ levels, test 2: 4648
IFN-γ; hour 12
  IFN-γ levels, average: 6418.5
  IFN-γ levels, test 1: 7529
  IFN-γ levels, test 2: 5308
IFN-γ; hour 24
  IFN-γ levels, average: 15500
  IFN-γ levels, test 1: 16500
  IFN-γ levels, test 2: 14500
IFN-γ; hour 48
  IFN-γ levels, average: 325.5
  IFN-γ levels, test 1: 319
  IFN-γ levels, test 2: 332
IFN-γ; hour 72
  IFN-γ levels, average: 62.5
  IFN-γ levels, test 1: 59
  IFN-γ levels, test 2: 66
IFN-γ; C57BL/6 and BALB/c mice, 1 μg i.v.
  effect: higher/extended IFN-γ and IL-12 with much lower IL-4 compared to α-GalCer (KRN): particularly pronounced

## CCCCCCCCCCCCCCCCC/C=C/CCCCCCCCC(=O)N[C@@H](CC[C@H]1O[C@H](CO)[C@H](O)[C@H](O)[C@H]1O)[C@H](O)[C@H](O)CCCCCCCCCCCCCC [A-3]
IL-12
  IL-12/IL-4 (B6): 1.5
  IL-12 levels, Total: 1400
IL-12; hour 0
  IL-12 levels, average: 5
  IL-12 levels, test 1: 5
  IL-12 levels, test 2: 5
IL-12; hour 2
  IL-12 levels, average: 75
  IL-12 levels, test 1: 79
  IL-12 levels, test 2: 71
IL-12; hour 6
  IL-12 levels, average: 442
  IL-12 levels, test 1: 451
  IL-12 levels, test 2: 433
IL-12; hour 12
  IL-12 levels, average: 608
  IL-12 levels, test 1: 449
  IL-12 levels, test 2: 767
IL-12; hour 24
  IL-12 levels, average: 89.5
  IL-12 levels, test 1: 77
  IL-12 levels, test 2: 102
IL-12; hour 48
  IL-12 levels, average: 99
  IL-12 levels, test 1: 67
  IL-12 levels, test 2: 131
IL-12; hour 72
  IL-12 levels, average: 80.5
  IL-12 levels, test 1: 53
  IL-12 levels, test 2: 108
IFN-γ
  IFN-γ/IL-4 (BALB/c): 40
  IFN-γ levels, Total: 21287
IFN-γ; hour 0
  IFN-γ levels, average: 27
  IFN-γ levels, test 1: 27
  IFN-γ levels, test 2: 27
IFN-γ; hour 2
  IFN-γ levels, average: 163
  IFN-γ levels, test 1: 137
  IFN-γ levels, test 2: 189
IFN-γ; hour 6
  IFN-γ levels, average: 1172
  IFN-γ levels, test 1: 1072
  IFN-γ levels, test 2: 1272
IFN-γ; hour 12
  IFN-γ levels, average: 3938.5
  IFN-γ levels, test 1: 3891
  IFN-γ levels, test 2: 3986
IFN-γ; hour 24
  IFN-γ levels, average: 15700
  IFN-γ levels, test 1: 14100
  IFN-γ levels, test 2: 17300
IFN-γ; hour 48
  IFN-γ levels, average: 224.5
  IFN-γ levels, test 1: 231
  IFN-γ levels, test 2: 218
IFN-γ; hour 72
  IFN-γ levels, average: 61
  IFN-γ levels, test 1: 62
  IFN-γ levels, test 2: 60

## CCCCCCCCCCCCCC[C@@H](O)[C@@H](O)[C@H](CC[C@H]1O[C@H](CO)[C@H](O)[C@H](O)[C@H]1O)NC(=O)CCCCCCCCCCCCCCCCCCCOCCCCCC [A-4]
IL-12
  IL-12/IL-4 (B6): 1.3
  IL-12 levels, Total: 1274
IL-12; hour 0
  IL-12 levels, average: 5
  IL-12 levels, test 1: 5
  IL-12 levels, test 2: 5
IL-12; hour 2
  IL-12 levels, average: 458.5
  IL-12 levels, test 1: 490
  IL-12 levels, test 2: 427
IL-12; hour 6
  IL-12 levels, average: 685.5
  IL-12 levels, test 1: 740
  IL-12 levels, test 2: 631
IL-12; hour 12
  IL-12 levels, average: 124
  IL-12 levels, test 1: 18
  IL-12 levels, test 2: 230
IL-12; hour 24
  IL-12 levels, average: 0
  IL-12 levels, test 1: 0
  IL-12 levels, test 2: 0
IL-12; hour 48
  IL-12 levels, average: 0
  IL-12 levels, test 1: 0
  IL-12 levels, test 2: 0
IL-12; hour 72
  IL-12 levels, average: 0
  IL-12 levels, test 1: 0
  IL-12 levels, test 2: 0
IFN-γ
  IFN-γ/IL-4 (BALB/c): 44
  IFN-γ levels, Total: 22676
IFN-γ; hour 0
  IFN-γ levels, average: 27
  IFN-γ levels, test 1: 27
  IFN-γ levels, test 2: 27
IFN-γ; hour 2
  IFN-γ levels, average: 142.5
  IFN-γ levels, test 1: 140
  IFN-γ levels, test 2: 145
IFN-γ; hour 6
  IFN-γ levels, average: 1742
  IFN-γ levels, test 1: 1778
  IFN-γ levels, test 2: 1706
IFN-γ; hour 12
  IFN-γ levels, average: 6513.5
  IFN-γ levels, test 1: 4988
  IFN-γ levels, test 2: 8039
IFN-γ; hour 24
  IFN-γ levels, average: 14100
  IFN-γ levels, test 1: 14000
  IFN-γ levels, test 2: 14200
IFN-γ; hour 48
  IFN-γ levels, average: 929.5
  IFN-γ levels, test 1: 752
  IFN-γ levels, test 2: 1107
IFN-γ; hour 72
  IFN-γ levels, average: 56.5
  IFN-γ levels, test 1: 47
  IFN-γ levels, test 2: 66
